Measurements from ChEMBL document CHEMBL1156187, “Discovery of a selective small-molecule melanocortin-4 receptor agonist with efficacy in a pilot study of sexual dysfunction in humans” (J Med Chem, 2010).

Key:
Melanocortin receptor 4 [1] = target: T1, Melanocortin receptor 4 (Homo sapiens, UniProt P32245); experiment: Displacement of [125I]-MT-II from human recombinant MC4 receptor expressed in CHO cells by scintillation counting
[2] = Lipophilicity, log D at pH 7.4; format: physicochemical; conditions: buffer
[3] = Half life in dog at 0.05 mg/kg, iv; format: ADME, organism-based, Canis lupus familiaris; parameters: dose 0.05 mg/kg, route intravenous; conditions: in vivo
[4] = Fraction unbound in dog plasma; format: ADME, cell-free, Canis lupus familiaris
[5] = Clearance in rat at 1 mg/kg, iv; format: ADME, organism-based; parameters: dose 1 mg/kg, route intravenous; conditions: in vivo
[6] = Volume of distribution at steady state in dog plasma at 0.05 mg/kg, iv; format: ADME, organism-based, Canis lupus familiaris; parameters: dose 0.05 mg/kg, route intravenous; conditions: read-out: Vdss
[7] = Apparent Permeability from apical to basolateral side of MDCK2 cells over expressing MDR1; format: ADME, cell-based, Canis lupus familiaris; conditions: dog, MDCK-MDR1; read-out: permeability
[8] = Oral bioavailability in rat at 0.1 mg/kg; format: ADME, organism-based; conditions: in vivo
Melanocortin receptor 4 [9] = target: T1, Melanocortin receptor 4; experiment: Agonist activity at human recombinant MC4 receptor expressed in CHO cells by cAMP responsive beta lactamase reporter gene assay; format: functional, cell-based
[10] = target: T2, Melanocyte-stimulating hormone receptor (Homo sapiens, UniProt Q01726); experiment: Agonist activity at human recombinant MC1 receptor expressed in HEK293 cells assessed as cAMP accumulation by enzyme fragment complementation assay relative to alpha melanocyte-stimulating hormone; format: functional, cell-based
Target sequence in this assay (Q01726 whole entry, looked up, the tested form may be a part): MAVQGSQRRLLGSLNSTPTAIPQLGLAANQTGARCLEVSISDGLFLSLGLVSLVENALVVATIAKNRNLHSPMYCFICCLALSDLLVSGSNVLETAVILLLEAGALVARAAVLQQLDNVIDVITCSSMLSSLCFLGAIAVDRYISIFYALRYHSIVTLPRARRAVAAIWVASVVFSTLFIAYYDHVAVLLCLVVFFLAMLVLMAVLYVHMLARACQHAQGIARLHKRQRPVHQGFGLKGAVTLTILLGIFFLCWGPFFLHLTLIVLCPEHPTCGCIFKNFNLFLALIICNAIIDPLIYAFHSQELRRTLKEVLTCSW

[11] = Oral bioavailability in dog at 0.1 mg/kg; format: ADME, organism-based, Canis lupus familiaris; conditions: in vivo
[12] = Binding affinity to sodium channel
Liver microsomes = experiment: Intrinsic clearance in rat liver microsome measured per mg of protein; format: ADME
[13] = Apparent Permeability from basolateral to apical side of MDCK2 cells over expressing MDR1; format: ADME, cell-based, Canis lupus familiaris; conditions: dog, MDCK-MDR1; read-out: permeability
[14] = Association constant, pKa of the compound; format: physicochemical
[15] = Intrinsic clearance in human liver microsome measured per mg of protein; format: ADME; conditions: liver microsomes
Melanocortin receptor 5 [16] = target: T3, Melanocortin receptor 5 (Homo sapiens, UniProt P33032); experiment: Agonist activity at human recombinant MC5 receptor expressed in HEK293 cells assessed as cAMP accumulation by beta lactamase reporter gene assay relative to alpha melanocyte-stimulating hormone; format: functional, cell-based
T3 sequence (P33032 whole entry): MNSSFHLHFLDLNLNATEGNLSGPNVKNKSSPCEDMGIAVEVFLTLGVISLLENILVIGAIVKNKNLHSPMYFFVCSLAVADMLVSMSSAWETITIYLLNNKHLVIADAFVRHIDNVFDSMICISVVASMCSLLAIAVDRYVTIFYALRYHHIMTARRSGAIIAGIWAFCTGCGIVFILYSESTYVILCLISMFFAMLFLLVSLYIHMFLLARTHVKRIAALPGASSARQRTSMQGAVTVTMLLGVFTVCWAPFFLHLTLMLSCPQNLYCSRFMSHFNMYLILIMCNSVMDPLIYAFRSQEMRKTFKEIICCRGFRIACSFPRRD

[17] = Intrinsic clearance in dog liver microsome measured per mg of protein; format: ADME, Canis lupus familiaris; conditions: microsomes
Melanocortin receptor 3 [18] = target: T4, Melanocortin receptor 3 (Homo sapiens, UniProt P41968); experiment: Agonist activity at human recombinant MC3 receptor expressed in CHO cells assessed as cAMP accumulation by enzyme fragment complementation assay relative to […]; format: functional, cell-based
T4 sequence (P41968 whole entry, the tested form may be a part): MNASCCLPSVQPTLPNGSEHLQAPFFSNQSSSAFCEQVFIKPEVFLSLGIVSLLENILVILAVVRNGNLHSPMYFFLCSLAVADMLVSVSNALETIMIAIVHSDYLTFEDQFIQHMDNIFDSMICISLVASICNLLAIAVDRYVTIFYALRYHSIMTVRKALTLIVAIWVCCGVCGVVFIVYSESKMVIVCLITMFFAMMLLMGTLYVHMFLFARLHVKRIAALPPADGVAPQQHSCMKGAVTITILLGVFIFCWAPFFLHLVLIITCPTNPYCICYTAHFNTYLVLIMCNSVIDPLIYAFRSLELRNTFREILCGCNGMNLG

[19] = Clearance in dog plasma at 0.05 mg/kg, iv; format: ADME, organism-based, Canis lupus familiaris; parameters: dose 0.05 mg/kg, route intravenous
[20] = Fraction unbound in rat plasma; format: ADME, cell-free
Melanocortin receptor 3 [21] = target: T4, Melanocortin receptor 3; experiment: Agonist activity at human recombinant MC3 receptor expressed in CHO cells assessed as cAMP accumulation by enzyme fragment complementation assay; format: functional, cell-based
[22] = Half life in rat at 1 mg/kg, iv; format: ADME, organism-based; parameters: dose 1 mg/kg, route intravenous; conditions: in vivo
Melanocortin receptor 5 [23] = target: T3, Melanocortin receptor 5; experiment: Agonist activity at human recombinant MC5 receptor expressed in HEK293 cells assessed as cAMP accumulation by beta lactamase reporter gene assay; format: functional, cell-based
[24] = target: T2, Melanocyte-stimulating hormone receptor; experiment: Agonist activity at human recombinant MC1 receptor expressed in HEK293 cells assessed as cAMP accumulation by enzyme fragment complementation assay; format: functional, cell-based
Target sequence in this assay (Q01726 whole entry, the tested form may be a part): as the sequence (Q01726 whole entry, looked up, the tested form may be a part) above

[25] = Volume of distribution at steady state in rat at 1 mg/kg, iv; format: ADME, organism-based; parameters: dose 1 mg/kg, route intravenous; conditions: in vivo, read-out: Vdss

T1 sequence (P32245 whole entry): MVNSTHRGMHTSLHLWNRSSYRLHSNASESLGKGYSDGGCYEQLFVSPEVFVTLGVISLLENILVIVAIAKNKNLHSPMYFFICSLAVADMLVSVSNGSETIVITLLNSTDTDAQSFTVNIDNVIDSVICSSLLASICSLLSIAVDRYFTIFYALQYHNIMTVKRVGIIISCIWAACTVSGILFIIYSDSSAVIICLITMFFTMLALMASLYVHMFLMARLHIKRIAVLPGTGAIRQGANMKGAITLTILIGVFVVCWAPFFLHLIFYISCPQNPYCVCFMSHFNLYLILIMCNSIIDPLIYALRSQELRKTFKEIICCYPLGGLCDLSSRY

Structure (SMILES): C[C@@H]1CN(C(=O)[C@@H]2CN(C(C)(C)C)C[C@H]2c2ccc(F)cc2F)C[C@H](C)[C@@]1(O)c1ccc(F)cc1.Cl
- Ki (Melanocortin receptor 4 [1]): 36 nM
- logD [2]: 3.1
- half-life [3]: 10.4 h
- fraction unbound [4]: 0.09
- clearance [5]: 34 mL/min/kg
- Vd [6]: 11 L/kg
- Papp A→B [7]: 26 ×10⁻⁶ cm/s
- bioavailability [8]: 74%
- EC50 (Melanocortin receptor 4 [9]): 18 nM
- Emax [10]: 99%
- bioavailability [11]: 28%
- Ki [12]: 520 nM
- clearance (Liver microsomes): 47 µL/min/mg
- Papp B→A [13]: 22 ×10⁻⁶ cm/s
- pKa [14]: 8.74
- microsomal CLint [15]: 28 µL/min/mg
- Emax (Melanocortin receptor 5 [16]): 116%
- clearance [17]: 8 µL/min/mg
- Emax (Melanocortin receptor 3 [18]): 79%
- clearance [19]: 12 mL/min/kg
- fraction unbound [20]: 0.04
- EC50 (Melanocortin receptor 3 [21]): 3050 nM
- half-life [22]: 3.9 h
- EC50 (Melanocortin receptor 5 [23]): 3600 nM
- EC50 [24]: 1120 nM
- Vd [25]: 11 L/kg
